Data as given in patent US20220324835A1 (Nurix Therapeutics, Inc., priority 2018, published 2022).

Legend:
[1] = target: T1, Cbl-b (Homo sapiens, UniProt Q13191); experiment: Cbl-b inhibition assay (Cbl-b activity assay, FRET, Biological Example 1; 100 mM NaCl, 60 nM Src kinase); type: biochemical; details: upper bound stated in text lists; read-out: IC50 values in the Cbl-b inhibition assay of Biological Example 1
Outline: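 Steps: Src kinase phosphorylates N-terminal biotinylated Avi-tagged Cbl-b; phosphorylated Cbl-b binds Bodipy-fluorescein ubiquitin-loaded UbcH5B; streptavidin-terbium on Cbl-b sits close to the fluorescein label, producing FRET. Inhibitors block UbcH5B-Ub binding.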

[2] = test system: T-cell; experiment: IL-2 secretion from T-cells co-stimulated with anti-CD3 and anti-CD28 antibody (Biological Example 2); type: cell-based, human; details: Homo sapiens, T-cell, read-out: IL-2 secretion Anti-CD3/Anti-CD28 stimulation; for fold induction at 0.3 µM: 0.3 μM Cbl-b inhibitor; for fold induction at 1 µM: 1 μM Cbl-b inhibitor; for fold induction at 4 µM: 4 μM Cbl-b inhibitor
Outline: (§1)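 T-cells were stimulated with anti-CD3 antibody alone or with anti-CD28 antibody, in the presence or absence of Cbl-b inhibitor. IL-2 secretion or CD25 surface staining was measured, and values expressed as fold over the uninhibited baseline […].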

[3] = test system: T-cell; experiment: CD25 cell surface staining on T-cells stimulated with anti-CD3 antibody alone (Biological Example 2); type: cell-based, human; details: T-cell, read-out: CD25 staining Anti-CD3 stimulation; for fold induction at 1 µM: 1 μM Cbl-b inhibitor; for fold induction at 8 µM: 8 μM Cbl-b inhibitor
[4] = test system: T-cell; experiment: IL-2 secretion from T-cells stimulated with anti-CD3 antibody alone (Biological Example 2); type: cell-based, human; details: T-cell, read-out: IL-2 secretion Anti-CD3 stimulation; for fold induction at 1 µM: 1 μM Cbl-b inhibitor; for fold induction at 8 µM: 8 μM Cbl-b inhibitor
[5] = test system: T-cell; experiment: CD25 cell surface staining on T-cells co-stimulated with anti-CD3 and anti-CD28 antibody (Biological Example 2); type: cell-based, human; details: Homo sapiens, T-cell, read-out: CD25 staining Anti-CD3/Anti-CD28 stimulation; for fold induction at 0.3 µM: 0.3 μM Cbl-b inhibitor; for fold induction at 1 µM: 1 μM Cbl-b inhibitor; for fold induction at 4 µM: 4 μM Cbl-b inhibitor
Outline: as §1

[6] = target: T1, Cbl-b; experiment: Cbl-b activity assay (Cbl-b inhibition assay), TR-FRET of Cbl-b interaction with UbcH5B-Ub; type: biochemical; details: assay buffer with 100 mM NaCl, 60 nM Src kinase; read-out: Cbl-b activity IC50
Outline: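 UbcH5B (C85K) conjugated to N-terminally Bodipy-Fluorescein-labeled ubiquitin served as the fluorescent partner. After compound preincubation, Src kinase (60 nM) with 1 mM ATP and 5 mM MgCl2 (final) was added for 1.5 h, followed by a further 1 h incubation. Some values were obtained with 50 mM NaCl and 30 nM Src.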

[7] = fold change over baseline (anti-CD3/anti-CD28 stimulated T-cells without inhibitor)
[8] = Homo sapiens, fold change over baseline (anti-CD3/anti-CD28 stimulated T-cells without inhibitor)
[9] = fold change over baseline, primary human total T-cells

T1 sequence (Q13191 36-427): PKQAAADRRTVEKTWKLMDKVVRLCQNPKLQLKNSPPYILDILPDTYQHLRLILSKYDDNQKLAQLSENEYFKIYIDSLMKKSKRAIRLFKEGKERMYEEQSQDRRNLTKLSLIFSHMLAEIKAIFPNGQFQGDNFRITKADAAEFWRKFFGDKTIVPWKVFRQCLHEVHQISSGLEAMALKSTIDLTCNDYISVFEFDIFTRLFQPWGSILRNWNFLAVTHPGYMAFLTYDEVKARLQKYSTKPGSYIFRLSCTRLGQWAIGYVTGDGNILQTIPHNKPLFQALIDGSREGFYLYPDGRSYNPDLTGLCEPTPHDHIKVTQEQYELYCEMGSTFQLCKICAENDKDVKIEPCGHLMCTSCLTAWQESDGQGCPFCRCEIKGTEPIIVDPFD

| SMILES | IC50 [1] [nM] | fold induction at 0.3 µM [2, 7] | fold induction at 1 µM [2, 7] | fold induction at 1 µM [3, 8] | fold induction at 1 µM [4, 8] | fold induction at 0.3 µM [5, 7] | fold induction at 1 µM [5, 7] | IC50 [6] [nM] | fold induction at 0.3 µM [2, 9] | fold induction at 1 µM [2, 9] | fold induction at 4 µM [2, 9] | fold induction at 1 µM [3, 9] | fold induction at 8 µM [3, 9] | fold induction at 1 µM [4, 9] | fold induction at 8 µM [4, 9] | fold induction at 0.3 µM [5, 9] | fold induction at 1 µM [5, 9] | fold induction at 4 µM [5, 9] |
| --- | --- | --- | --- | --- | --- | --- | --- | --- | --- | --- | --- | --- | --- | --- | --- | --- | --- | --- |
| Cc1cc(C(=O)Nc2cccc(C3(Cc4nncn4C)COC3)c2)n2ncc(C)c2n1 [Example 606, 3,5-dimethyl-N-(3-(3-((4-methyl-4H-1,2,4-triazol-3-yl)methyl)oxetan-3-yl)phenyl)pyrazolo[1,5-a]pyrimidine-7-carboxamide] | ≤ 100 | 2.51 to 5 | 2.51 to 5 | 0.801 to 1 | 0.051 to 0.1 | 1.01 to 1.3 | 1.01 to 1.3 | < 100 | – | – | – | – | – | – | – | – | – | – |
| Cn1cnnc1CC1(c2cccc(NC(=O)c3cc(C4CC4)nc(C4CC4)n3)c2)COC1 [Compound 347, 2,6-dicyclopropyl-N-(3-(3-((4-methyl-4H-1,2,4-triazol-3-yl)methyl)oxetan-3-yl)phenyl)pyrimidine-4-carboxamide] | ≤ 100 | – | – | – | – | – | – | < 100 | 2.51 to 5 | > 7.5 | > 7.5 | > 1 | > 1 | 0.151 to 0.2 | > 0.201 | 1.01 to 1.3 | 1.01 to 1.3 | 1.31 to 1.5 |
| Cn1cnnc1CC1(c2cccc(N3Cc4c(cc(CN5CCCCC(F)C5)cc4C(F)(F)F)C3=O)c2)COC1 (stereo not drawn) [Example 627, 6-((3-fluoroazepan-1-yl)methyl)-2-(3-(3-((4-methyl-4H-1,2,4-triazol-3-yl)methyl)oxetan-3-yl)phenyl)-4-(trifluoromethyl)isoindolin-1-one] | ≤ 100 | 5 to 7.5 | > 7.5 | > 1 | > 0.201 | 1.31 to 1.5 | 1.31 to 1.5 | < 100 | – | – | – | – | – | – | – | – | – | – |
| Cc1ccnn1CC(C)c1cccc(NC(=O)c2cccc(C(F)(F)F)n2)c1 (stereo not drawn) [Compound 215, N-[3-[1-methyl-2-(5-methylpyrazol-1-yl)ethyl]phenyl]-6-(trifluoromethyl)pyridine-2-carboxamide] | ≤ 1000 | – | – | – | – | – | – | 301 to 1000 | < 1 | < 1 | 1.01 to 2.5 | < 0.6 | < 0.6 | 0.051 to 0.1 | 0.051 to 0.1 | 1.51 to 1.75 | 1.31 to 1.5 | 1.51 to 1.75 |
| Cn1cnnc1[C@H](F)C1(c2cccc(N3Cc4c(cc(CN5C6CCC5CC6)cc4C(F)(F)F)C3=O)c2)COC1 [Example 671b, (R)-6-((7-azabicyclo[2.2.1]heptan-7-yl)methyl)-2-(3-(3-(fluoro(4-methyl-4H-1,2,4-triazol-3-yl)methyl)oxetan-3-yl)phenyl)-4-(trifluoromethyl)isoindolin-1-one] | ≤ 100 | > 7.5 | > 7.5 | > 1 | > 0.201 | > 1.76 | > 1.76 | < 100 | – | – | – | – | – | – | – | – | – | – |
